According to patent publication US12496353B2, “Synergistic effects between auristatin-based antibody drug conjugates and inhibitors of the PI3K-AKT mTOR pathway” (SEAGEN INC., priority 2010, dated 2025):
Non-standard residues stand in square brackets, D forms with d. Residues, ends and D or L forms follow the SMILES beside them. *: point of attachment. Dolaproine = CO[C@@H]([C@@H]1CCCN1)[C@@H](C)C(=O)O; Dil = CC[C@H](C)[C@H](NC)[C@@H](CC(=O)O)OC; X1 = C[C@@H](N*)[C@@H](O)c1ccccc1; NMeV = CN[C@H](C(=O)O)C(C)C

How the values were obtained:
786-O cells = experiment: In vitro combination cytotoxicity (Cell Titer Glo, Chou-Talalay CI), 786-O; assay type: cell-based; settings: for interaction with the rapalogs temsirolimus, sirolimus, and everolimus / cytotoxicity of the drug alone: 786-O cell line; for interaction with the rapalogs temsirolimus, sirolimus, and everolimus: FIG. 2; for cytotoxicity of the drug alone: single drug; for effect on the cytotoxicity of h1F6-mcF: RCC cell lines (786-O and Caki-2 named in the sentence before)
Method: (§1) 786-O cells were cultured in Roswell Park Memorial Institute medium (RPMI) 1640+10% fetal bovine serum (FBS). Caki-1 cells were cultured in McCoy's 5A medium+10% FBS. Caki-2 cells were cultured in McCoy's 5A medium+2% FBS. 786-O, Caki-1, and Caki-2 cells (renal cell carcinoma cell lines) were all cultured at 37° C. with 5% CO2. L540cy cells were cultured in RPMI 1640+20% FBS. L428 cells were cultured in RPMI 1640+10% FBS. L540cy and L428 cell lines are Hodgkin lymphoma cell lines. Karpas-299 cells were cultured in RPMI 1640+10% FBS. The Karpas-299 cell line is an anaplastic large cell lymphoma cell (ALCL) line. HT cells were cultured in RPMI 1640+10% FBS. Raji 4RII cells (clone-11) were a gift from Francisco J. Hernandez-Ilizaliturri and cultured in RPMI 1640+10% FBS. HT and Raji 4RH cell lines are Non-Hodgkin lymphoma cell lines. Jeko-1 cells were cultured in RPMI-1640+10% FBS . Jeko-1 cell lines are mantle cell lymphoma cell lines.
Cells were plated in 100 μL growth media per well into black-sided clear-bottom 96-well plates. Next, 4× concentration working stocks of small molecule inhibitor and antibody drug conjugate were prepared, and then titrated as 2-fold serial dilutions producing 10-point dose curves. For the single drug conditions, 50 μL small molecule inhibitor or ADC or free auristatin was added to each well in quadruplicate with 50 μL of media producing a final volume of 200 μL per well. For the combination conditions, 50 μL small molecule inhibitor and 50 μL ADC or free auristatin dilution were added to the cells (overlaying the dose titrations of each drug: high to low) in quadruplicate producing a final volume of 200 μ, per well. Treated cells were incubated 96 hours at 37° C., 5% CO2. Cytotoxicity was measured by incubating with 100 μL Cell Titer Glo (Promega) solution for 1 hour, and then luminescence was measured on a Fusion HT plate reader (Perkin Elmer). Data was processed with Excel (Microsoft) and GraphPad (Prism) to produce dose response curves and calculate the fraction affected (f a) at each dose concentration. Then CalcuSyn (Biosoft) software was used to determine synergism, additivity, or antagonism for each drug combination using the median-effect equation of Chou-Talalay: D=Dm[fa/(1−fa)]^1/m Median-effect equation
(D) is the dose of the drug. (Dm) is the median-effect dose signifying the potency. This is determined by the x-intercept of the median-effect plot. (fa) is the fraction affected by the dose. (fu) is the fraction unaffected, (1−fa). (m) is an exponent signifying the sigmoidicity (shape) of the dose-effect curve. It is determined by the slope of the median-effect plot. The linear correlation coefficient “r” should be greater than or equal to 0.90. The drug concentration units are arbitrary.
Combination index (CI) values <0.9 indicate synergism, CI values 0.9-1.1 indicate additivity, and CI values >1.1 indicate antagonism.
Each combination study was repeated on separate days a total of n=3 times unless otherwise noted, and the mean combination index value reported with standard error of the mean (sem).

Caki-1 cells = experiment: In vitro combination cytotoxicity (Cell Titer Glo, Chou-Talalay CI), Caki-1; assay type: cell-based; settings: Caki-1 cell line; FIG. 3
Method: as §1
(§2) Cells were plated in 100 μL growth media per well into black-sided clear-bottom 96-well plates. […] Cytotoxicity was measured by incubating with 100 μL Cell Titer Glo (Promega) solution for 1 hour, and then luminescence was measured on a Fusion HT plate reader (Perkin Elmer). […]
(§3) (D) is the dose of the drug. […] This is determined by the x-intercept of the median-effect plot. […] It is determined by the slope of the median-effect plot. […]

L428 cells [1] = experiment: In vivo combination of cAC10-vcE and everolimus, B-like Hodgkin lymphoma murine xenograft; parameters: species or system NOD-SCID-gamma mice; settings: for complete responses: L428 xenograft, day 61, groups of 10 mice, cAC10-vcE 1.0 mg/kg q4dx4 ip, everolimus 15 mg/kg po
Method: To test combination treatments in B-like Hodgkin lymphoma in vivo, a murine xenograft model was used. L428 cells were implanted into NOD-SCID-gamma mice (The Jackson Laboratory) to generate tumors. Tumors were grown to an average of 90 mm 3 , then sorted into groups of 10 mice. Mice were not treated, treated with everolimus (15 mg/kg), treated with cAC10 (1 mg/kg), treated with cAC10-vcE (1.0 mg/kg), treated with cAC10 and everolimus, or treated with cAC10-vcE and everolimus. The cAC10-vcE and cAC10 was administered q4dx4 ip. The everolimus was administered ql dx14 po.

Caki-2 cells = experiment: In vitro combination cytotoxicity (Cell Titer Glo, Chou-Talalay CI), Caki-2; assay type: cell-based; settings: Caki-2 cell line; single drug
Method: as §1, §2, §3

L428 cells [2] = experiment: In vivo combination of cAC10-vcE and temsirolimus, B-like Hodgkin lymphoma murine xenograft; parameters: species or system NOD-SCID-gamma mice; settings: for Median Days to Triple Volume: L428 xenograft, cAC10-vcE 1.0 mg/kg q4dx4 ip, temsirolimus 20 mg/kg ip
Method: To test combination treatments in B-like Hodgkin lymphoma in vivo, a murine xenograft model was used. L428 cells were implanted into NOD-SCID-gamma mice (The Jackson Laboratory) to generate tumors. Tumors were grown to an average of 90 mm^3, then sorted into groups of 7 mice. Mice were not treated, treated with temsirolimus (20 mg/kg), treated with cAC10-vcE (1.0 mg/kg), or treated with cAC10-vcE and temsirolimus. The cAC10-vcE was administered q4dx4 ip. The temsirolimus was administered q4dx4 ip or q3dx6 ip. In the combination treatment, the cAC10-vcE was dosed 2 days before temsirolimus. Tumor volume was measured periodically for 120 days post initial dosing. Data was plotted as a Kaplan-Meier plot showing rate of tumor tripling. P-values were calculated using the Log-rank test to confirm statistical significance.

HT cells = experiment: In vitro combination cytotoxicity (Cell Titer Glo, Chou-Talalay CI), HT; assay type: cell-based; settings: HT cell line
Method: as §1, §2, §3

**Q.** Which “interaction with the rapalogs temsirolimus, sirolimus, and everolimus” value (786-O cells) does the source give for `CC[C@H](C)[C@@H]([C@@H](CC(=O)N1CCC[C@H]1[C@H](OC)[C@@H](C)C(=O)N[C@H](C)[C@@H](O)c1ccccc1)OC)N(C)C(=O)[C@@H](NC(=O)[C@@H](NC)C(C)C)C(C)C` [MMAE, monomethyl auristatin E] (H-[NMeV]V[Dil][Dolaproine]-X1) here?
**A.** Its value is “synergistic”.

**Q.** And the “interaction with the rapalogs temsirolimus and sirolimus” value (Caki-1 cells)?
**A.** The value was “synergistic”.

**Q.** Which complete responses (L428 cells [1]) does the source give for `CO[C@H]1C[C@@H]2CC[C@@H](C)[C@@](O)(O2)C(=O)C(=O)N2CCCC[C@H]2C(=O)O[C@H]([C@H](C)C[C@@H]2CC[C@@H](OCCO)[C@H](OC)C2)CC(=O)[C@H](C)/C=C(\C)[C@@H](O)[C@@H](OC)C(=O)[C@H](C)C[C@H](C)/C=C/C=C/C=C/1C` [everolimus] here?
**A.** Its complete responses is “no complete responses”.

**Q.** Which “cytotoxicity of the drug alone” value (786-O cells) does the source give for `CO[C@H]1C[C@@H]2CC[C@@H](C)[C@@](O)(O2)C(=O)C(=O)N2CCCC[C@H]2C(=O)O[C@H]([C@H](C)C[C@@H]2CC[C@@H](O)[C@H](OC)C2)CC(=O)[C@H](C)/C=C(\C)[C@@H](O)[C@@H](OC)C(=O)[C@H](C)C[C@H](C)/C=C/C=C/C=C/1C` [sirolimus, rapamycin] here?
**A.** Its value is “not potent cytotoxic drugs”.

**Q.** What about the “effect on the cytotoxicity of h1F6-mcF” value (786-O cells) of the same molecule?
**A.** Its value is “potentiate the cytotoxicity of h1F6-mcF”.

**Q.** What about the “cytotoxicity of the drug alone” value (Caki-2 cells) of the same molecule?
**A.** Its value is “not potent cytotoxic drugs except in the Caki-2 cell line grown in media with low FBS”.

**Q.** `CO[C@H]1C[C@@H]2CC[C@@H](C)[C@@](O)(O2)C(=O)C(=O)N2CCCC[C@H]2C(=O)O[C@H]([C@H](C)C[C@@H]2CC[C@@H](OC(=O)C(C)(CO)CO)[C@H](OC)C2)CC(=O)[C@H](C)/C=C(\C)[C@@H](O)[C@@H](OC)C(=O)[C@H](C)C[C@H](C)/C=C/C=C/C=C/1C` [temsirolimus] was tested. Which “cytotoxicity of the drug alone” value (786-O cells) did it give?
**A.** Its value is “not potent cytotoxic drugs”.

**Q.** What about the “effect on the cytotoxicity of h1F6-mcF” value (786-O cells) of the same molecule?
**A.** The value was “potentiate the cytotoxicity of h1F6-mcF”.

**Q.** What about the “cytotoxicity of the drug alone” value (Caki-2 cells) of the same molecule?
**A.** The value was “not potent cytotoxic drugs except in the Caki-2 cell line grown in media with low FBS”.

**Q.** What about the “Median Days to Triple Volume” value (L428 cells [2]) of the same molecule?
**A.** Its value is 56 days.

**Q.** Which results are given for “cAC10-vcE: vc-MMAE (mc-vc-MMAE) antibody drug conjugate wherein the antibody is a chimeric AC10 (anti-CD30) antibody”?
**A.** interaction with temsirolimus in delaying tumor growth in vivo (L428 cells [2]; B-like HL murine xenograft model, FIG. 5): synergistic; Median Days to Triple Volume (L428 cells [2]): 52 days; interaction with everolimus in delaying tumor growth in vivo (L428 cells [1]; B-like HL murine xenograft model, FIG. 6): synergistic; complete responses (L428 cells [1]): no complete responses

B1: h1F6-mcF (conjugate, chains of the INN, looked up)
VH: QVQLVQSGAEVKKPGASVKVSCKASGYTFTNYGMNWVRQAPGQGLKWMGWINTYTGEPTYADAFKGRVTMTRDTSISTAYMELSRLRSDDTAVYYCARDYGDYGMDYWGQGTTVTVSS
VL: DIVMTQSPDSLAVSLGERATINCRASKSVSTSGYSFMHWYQQKPGQPPKLLIYLASNLESGVPDRFSGSGSGTDFTLTISSLQAEDVAVYYCQHSREVPWTFGQGTKVEIK
modifications: maleimidocaproyl-MMAF (mcF) drug conjugate
**Q.** How did the “interaction with the rapalogs temsirolimus, sirolimus, and everolimus” value (786-O cells) turn out when B1 was run?
**A.** Its value is “synergistic”.

**Q.** And the “interaction with the rapalogs temsirolimus and sirolimus” value (Caki-1 cells)?
**A.** Its value is “synergistic”.

B2: hBU12-mcF (conjugate, chains of the INN, looked up)
VH: QVQLQESGPGLVKPSQTLSLTCTVSGGSISTSGMGVGWIRQHPGKGLEWIGHIWWDDDKRYNPALKSRVTISVDTSKNQFSLKLSSVTAADTAVYYCARMELWSYYFDYWGQGTLVTVSS
VL: EIVLTQSPATLSLSPGERATLSCSASSSVSYMHWYQQKPGQAPRLLIYDTSKLASGIPARFSGSGSGTDFTLTISSLEPEDVAVYYCFQGSVYPFTFGQGTKLEIK
modifications: maleimidocaproyl-MMAF (mcF) drug conjugate
**Q.** With B2 as the molecule, how does the “interaction with the rapalogs temsirolimus and sirolimus” value (HT cells) read?
**A.** The value was “synergistic”.
